Source: ChEMBL document CHEMBL5608211, “Antibody-drug conjugates for targeted cancer therapy: Recent advances in potential payloads” (Eur J Med Chem, 2024)
Starred links: 1 amine or outer side, 2 acyl side, 3 side chain; linkers in the order of their positions; H or OH if unused. Positions of bridges follow the written chain, without caps; N, C: chain ends. Non-standard residues stand in square brackets, D forms with d. Residues, ends and D or L forms follow the SMILES beside them. *: point of attachment. X7 = C[C@H]([C@H](N[*:3])C(=O)C[C@@H](Cc1c([*:2])[nH]c2cc(O)ccc12)C(=O)[*:1])[C@@H](O)CO; Dolaproine = CO[C@@H]([C@@H]1CCCN1)[C@@H](C)C(=O)O; X10 = CC(C)[C@@H](C(=O)[*:2])N(C)CCCCN(C)[*:1]; X1 = O=C([C@]1(N[*:1])C[C@@H]1c1ccccc1)[*:2]; Dil = CC[C@H](C)[C@H](NC)[C@@H](CC(=O)O)OC; X3 = CCOP(=O)(OCC)[C@@H](N[*:1])C(=O)[*:2]; Pro(4R-NH2) = N[C@H]1CN[C@H](C(=O)O)C1; X9 = c1ccc(C[C@H](N*)c2nn[nH]n2)cc1; NMe2Val = CC(C)[C@@H](C(=O)*)N(C)C; X8 = CCOP(=O)(O)[C@H](Cc1ccccc1)N*; X6 = C[C@@H](N*)[C@@H](O)c1ccccc1; NMeV = CN[C@H](C(=O)O)C(C)C; X5 = c1ccc(COC2CON(*)C2)cc1; X2 = c1ccc2c(c1)CON(*)C2; Boc = CC(C)(C)OC(=O)*; X4 = C1=CC2CCC1ON2*; NHOH = ON*

Key:
MOLM-13 = assay: Growth inhibition of human MOLM-13 cells incubated for 5 days by PrestoBlue reagent assay; format: functional; settings: MOLM-13, 120 h, time 5 day
CCRF-CEM = assay: Cytotoxicity against human CCRF-CEM cells; format: functional, cell-based
A2780 = assay: Cytotoxicity against human A2780 cells assessed as inhibition of cell growth incubated for 72 hrs by MTT assay; format: functional, cell-based; settings: A2780, 72 h
Tubulin = assay: Displacement of fluorescent Maytansine probe from tubulin (unknown origin) assessed as dissociation constant by competitive binding based fluorescence anisotropy; format: protein-complex assay, Homo sapiens
KARPAS-299 = assay: Cytotoxicity against human KARPAS-299 cells incubated for 96 hrs by Alamar blue assay; format: functional, cell-based; settings: KARPAS-299, 96 h
A2058 = assay: Cytotoxicity against human A2058 cells assessed as inhibition of cell growth incubated for 96 hrs by CellTiter-Glo luminescent assay; format: functional, cell-based; settings: A2058, 96 h
[1] = Inhibition of RNA polymerase II phosphorylation in human HeLa cells by Western blot analysis; format: cell-based
H3396 [2] = assay: Cytotoxicity against human H3396 cells assessed as inhibition of cell growth incubated for 96 hrs by Alamar blue assay; format: functional, cell-based; settings: H3396, 96 h
HCT-116 = assay: Cytotoxicity against human HCT-116 cells incubated for 96 hrs by resazurin dye based fluorescence spectrometric assay; format: functional, cell-based; settings: HCT-116, 96 h
H3396 [3] = assay: Cytotoxicity against human H3396 cells incubated for 96 hrs by resazurin dye based fluorescence spectrometric assay; format: functional, cell-based; settings: H3396, 96 h
HT-29 [4] = assay: Antiproliferative activity against human HT-29 cells incubated for 48 to 96 hrs by MTT assay; format: functional, cell-based
786-0 = assay: Antiproliferative activity against human 786-0 cells incubated for 48 to 96 hrs by MTT assay; format: functional, cell-based
SK-BR-3 = assay: Growth inhibition of human SK-BR-3 cells incubated for 72 hrs by CellTiter-Glo luminescent assay; format: functional
[5] = Cytotoxicity against human L540cy cells assessed as reduction in cell growth incubated for 4 days by CellTiter-Glo luminescent assay; format: functional, cell-based; settings: 96 h
HT-29 [6] = assay: Antiproliferative activity against human HT-29 cells assessed as inhibition of cell growth incubated for 96 hrs by SRB assay; format: functional, cell-based; settings: HT-29, 96 h
DLD-1 = assay: Antiproliferative activity against human DLD-1 cells assessed as inhibition of cell growth incubated for 3 to 4 days; format: functional, cell-based

## CC[C@H](C)[C@@H]([C@@H](CC(=O)N1C[C@@H](N)C[C@H]1[C@H](OC)[C@@H](C)C(=O)N[C@@H](Cc1ccccc1)C(=O)OC)OC)N(C)C(=O)[C@@H](NC(=O)[C@H](C(C)C)N(C)C)[C@H](C)N=[N+]=[N-]
MOLM-13
  GI50: 0.057 nM

## COc1ccc(C[C@H]2NC(=O)/C=C/C[C@@H]([C@H](C)[C@H]3O[C@@H]3c3ccc(F)cc3)OC(=O)[C@H](CC(C)C)OC(=O)C(C)(C)CNC2=O)cc1Cl
CCRF-CEM
  IC50: 0.033 nM

## COc1cc2cc(c1Cl)N(C)C(=O)C[C@H](OC(=O)c1ccccc1)[C@@]1(C)O[C@H]1[C@H](C)[C@@H]1C[C@@](O)(NC(=O)O1)[C@H](OC)/C=C/C=C(\C)C2
A2780
  IC50: 0.11 nM
Tubulin
  Kd: 51 nM

## CC[C@H](C)[C@@H]([C@@H](CC(=O)N1CCC[C@H]1[C@H](OC)[C@@H](C)C(=O)N[C@H](Cc1ccccc1)C(=O)OC)OC)N(C)C(=O)[C@@H](NC(=O)c1ccc(N)cc1)C(C)C
KARPAS-299
  IC50: 0.12 nM

## CC[C@H](C)[C@@H]([C@@H](CC(=O)N1CCC[C@H]1[C@H](OC)[C@@H](C)C(=O)N[C@@H](Cc1ccccc1)C(=O)O)OC)N(C)C(=O)[C@@H](NC(=O)[C@H](C(C)C)N(C)CCCCN(C)C(=O)OC(C)(C)C)C(C)C (Boc-[X10]V[Dil][Dolaproine]F-OH)
A2058
  IC50: 1 nM

## CC[C@H](C)[C@@H]1NC(=O)CNC(=O)[C@H]2CC(=O)[C@H]([C@@H](C)[C@@H](O)CO)NC(=O)[C@@H]3C[C@@H](N)CN3C(=O)[C@H](CC(N)=O)NC(=O)[C@H](CSc3[nH]c4cc(O)ccc4c3C2)NC(=O)CNC1=O (GIGCN[Pro(4R-NH2)]; linker N-4-C via X7)
[1]
  IC50: 550 nM

## CC[C@H](C)[C@@H]([C@@H](CC(=O)N1CCC[C@H]1[C@H](OC)[C@@H](C)C(=O)N[C@H](C)[C@@H](O)c1ccccc1)OC)N(C)C(=O)[C@@H](NC(=O)[C@@H](NC)C(C)C)C(C)C (H-[NMeV]V[Dil][Dolaproine]-X6)
H3396 [2]
  IC50: 0.1 nM

## CCOP(=O)(O)[C@H](Cc1ccccc1)NC(=O)[C@H](C)[C@@H](OC)[C@@H]1CCCN1C(=O)C[C@@H](OC)[C@H]([C@@H](C)CC)N(C)C(=O)[C@@H](NC(=O)[C@@H](NC)C(C)C)C(C)C (H-[NMeV]V[Dil][Dolaproine]-X8)
HCT-116
  IC50: 0.09 nM

## CC[C@H](C)[C@@H]([C@@H](CC(=O)N1CCC[C@H]1[C@H](OC)[C@@H](C)C(=O)N[C@@H](Cc1ccccc1)c1nn[nH]n1)OC)N(C)C(=O)[C@@H](NC(=O)[C@@H](NC)C(C)C)C(C)C (H-[NMeV]V[Dil][Dolaproine]-X9)
H3396 [3]
  IC50: 6 nM

## CC[C@H](C)[C@@H]([C@@H](CC(=O)N1CCC[C@H]1[C@H](OC)[C@@H](C)C(=O)N[C@@H](Cc1ccccc1)C(=O)N1CC(OCc2ccccc2)CO1)OC)N(C)C(=O)[C@@H](NC(=O)[C@@H](NC)C(C)C)C(C)C (stereo partly specified) (H-[NMeV]V[Dil][Dolaproine]F-X5)
HT-29 [4]
  IC50: 0.5 nM
786-0
  IC50: 0.5 nM

## CC[C@H](C)[C@@H]([C@@H](CC(=O)N1CCC[C@H]1[C@H](OC)[C@@H](C)C(=O)N[C@@]1(C(=O)N2Cc3ccccc3CO2)C[C@@H]1c1ccccc1)OC)N(C)C(=O)[C@@H](NC(=O)[C@@H](NC)C(C)C)C(C)C (H-[NMeV]V[Dil][Dolaproine][X1]-X2)
HT-29 [4]
  IC50: 0.5 nM
786-0
  IC50: 0.5 nM

## CCOP(=O)(OCC)[C@@H](NC(=O)[C@H](C)[C@@H](OC)[C@@H]1CCCN1C(=O)C[C@@H](OC)[C@H]([C@@H](C)CC)N(C)C(=O)[C@@H](NC(=O)[C@@H](NC)C(C)C)C(C)C)C(=O)N1OC2C=CC1CC2 (stereo partly specified) (H-[NMeV]V[Dil][Dolaproine][X3]-X4)
HT-29 [4]
  IC50: 0.5 nM
786-0
  IC50: 0.5 nM

## CC[C@H](C)[C@@H]([C@@H](CC(=O)N1CCC[C@H]1[C@H](OC)[C@@H](C)C(=O)N[C@@H](CC(C)C)C(=O)NO)OC)N(C)C(=O)[C@@H](NC(=O)[C@H](C(C)C)N(C)C)C(C)C (NMe2Val-V[Dil][Dolaproine]L-{NHOH})
SK-BR-3
  GI50: 0.1 nM

## O=C(/C=C/c1cccnc1)NCCCCC1CCN(C(=O)c2ccccc2)CC1 [DAPORINAD]
[5]
  EC50: 6.7 nM

## CC[C@H](C)[C@@H]([C@@H](CC(=O)N1CCC[C@H]1[C@H](OC)[C@@H](C)C(=O)N[C@@H](Cc1ccccc1)c1nccs1)OC)N(C)C(=O)[C@@H](NC(=O)[C@H](C(C)C)N(C)C)C(C)C [DOLASTATIN-10]
HT-29 [6]
  IC50: 0.018 nM

## C=C1C[C@@H]2CC[C@@]34C[C@H]5O[C@H]6[C@@H](O3)[C@H]3O[C@H](CC[C@@H]3O[C@H]6[C@H]5O4)CC(=O)C[C@@H]3[C@@H](OC)[C@@H](C[C@H](O)CN)O[C@H]3C[C@H]3O[C@@H](CC[C@@H]1O2)C[C@@H](C)C3=C [ERIBULIN]
DLD-1
  IC50: 13 nM

## COc1cc2cc(c1Cl)N(C)C(=O)C[C@H](OC(=O)[C@H](C)N(C)C(C)=O)[C@]1(C)O[C@H]1[C@H](C)[C@@H]1C[C@@](O)(NC(=O)O1)[C@H](OC)/C=C/C=C(\C)C2 [MAYTANSINE]
Tubulin
  Kd: 14 nM
